Results as given in patent US12618095B2, “Medium for Bacillus cereus group detection” (SHIMADZU DIAGNOSTICS CORPORATION, priority 2020, dated 2026).

What was measured:
Test in all cases: Test Example 10: agar medium with aztreonam or ceftazidime
E. coli = format: cell-based; settings: 22 hours; for Number of colonies: ATCC8739
E. amnigenus = settings: 22 hours; for Number of colonies: ATCC33072
B. thuringiensis = settings: NBRC101235, 22 hours
B. cereus = settings: 22 hours

For `C[C@H]1[C@H](NC(=O)/C(=N\OC(C)(C)C(=O)O)c2csc(N)n2)C(=O)N1S(=O)(=O)O` [aztreonam], the Number of colonies (E. coli; Aztreonam 0.05 mg, 10^1 cfu/mL) was “−”, the Number of colonies (E. coli; Aztreonam 0.05 mg, 10^2 cfu/mL) was “−” and the Number of colonies (E. coli; Aztreonam 0.05 mg, 10^3 cfu/mL) was “−”. The Number of colonies (E. coli; Aztreonam 0.05 mg, 10^4 cfu/mL) was “−”, the Number of colonies (E. coli; Aztreonam 0.05 mg, 10^5 cfu/mL) was “−” and the Number of colonies (E. coli; Aztreonam 0.5 mg, 10^1 cfu/mL) was “−”. The Number of colonies (E. coli; Aztreonam 0.5 mg, 10^2 cfu/mL) was “−”, the Number of colonies (E. coli; Aztreonam 0.5 mg, 10^3 cfu/mL) was “−” and the Number of colonies (E. coli; Aztreonam 0.5 mg, 10^4 cfu/mL) was “−”. The Number of colonies (E. coli; Aztreonam 0.5 mg, 10^5 cfu/mL) was “−”, the Number of colonies (E. coli; Aztreonam 5 mg, 10^1 cfu/mL) was “−” and the Number of colonies (E. coli; Aztreonam 5 mg, 10^2 cfu/mL) was “−”. The Number of colonies (E. coli; Aztreonam 5 mg, 10^3 cfu/mL) was “−”, the Number of colonies (E. coli; Aztreonam 5 mg, 10^4 cfu/mL) was “−” and the Number of colonies (E. coli; Aztreonam 5 mg, 10^5 cfu/mL) was “−”. The “formation of a white colony” value (E. coli; added to TSA-BC, 30° C.) was “suppressed”, the Number of colonies (E. amnigenus; Aztreonam 0.05 mg, 10^1 cfu/mL) was “−” and the Number of colonies (E. amnigenus; Aztreonam 0.05 mg, 10^2 cfu/mL) was “−”. For the same compound, the Number of colonies (E. amnigenus; Aztreonam 0.05 mg, 10^3 cfu/mL) was “−”, the Number of colonies (E. amnigenus; Aztreonam 0.05 mg, 10^4 cfu/mL) was “−” and the Number of colonies (E. amnigenus; Aztreonam 0.05 mg, 10^5 cfu/mL) was 2. For the same compound, the Number of colonies (E. amnigenus; Aztreonam 0.5 mg, 10^1 cfu/mL) was “−”, the Number of colonies (E. amnigenus; Aztreonam 0.5 mg, 10^2 cfu/mL) was “−” and the Number of colonies (E. amnigenus; Aztreonam 0.5 mg, 10^3 cfu/mL) was “−”. For the same compound, the Number of colonies (E. amnigenus; Aztreonam 0.5 mg, 10^4 cfu/mL) was “−”, the Number of colonies (E. amnigenus; Aztreonam 0.5 mg, 10^5 cfu/mL) was “−” and the Number of colonies (E. amnigenus; Aztreonam 5 mg, 10^1 cfu/mL) was “−”. The Number of colonies (E. amnigenus; Aztreonam 5 mg, 10^2 cfu/mL) was “−”, the Number of colonies (E. amnigenus; Aztreonam 5 mg, 10^3 cfu/mL) was “−” and the Number of colonies (E. amnigenus; Aztreonam 5 mg, 10^4 cfu/mL) was “−”. The Number of colonies (E. amnigenus; Aztreonam 5 mg, 10^5 cfu/mL) was “−”, the “formation of a white colony” value (E. amnigenus; added to TSA-BC, 30° C.) was “suppressed” and the Number of colonies (B. thuringiensis; Aztreonam 0.05 mg, 10^1 cfu/mL) was 3. The Number of colonies (B. thuringiensis; Aztreonam 0.05 mg, 10^2 cfu/mL) was 16, the Number of colonies (B. thuringiensis; Aztreonam 0.05 mg, 10^3 cfu/mL) was “+” and the Number of colonies (B. thuringiensis; Aztreonam 0.05 mg, 10^4 cfu/mL) was “+”. The Number of colonies (B. thuringiensis; Aztreonam 0.05 mg, 10^5 cfu/mL) was “+”, the Number of colonies (B. thuringiensis; Aztreonam 0.5 mg, 10^1 cfu/mL) was 1 and the Number of colonies (B. thuringiensis; Aztreonam 0.5 mg, 10^2 cfu/mL) was 13. The Number of colonies (B. thuringiensis; Aztreonam 0.5 mg, 10^3 cfu/mL) was “+”, the Number of colonies (B. thuringiensis; Aztreonam 0.5 mg, 10^4 cfu/mL) was “+” and the Number of colonies (B. thuringiensis; Aztreonam 0.5 mg, 10^5 cfu/mL) was “+”. For the same compound, the Number of colonies (B. thuringiensis; Aztreonam 5 mg, 10^1 cfu/mL) was 2, the Number of colonies (B. thuringiensis; Aztreonam 5 mg, 10^2 cfu/mL) was 16 and the Number of colonies (B. thuringiensis; Aztreonam 5 mg, 10^3 cfu/mL) was “+”. The Number of colonies (B. thuringiensis; Aztreonam 5 mg, 10^4 cfu/mL) was “+”, the Number of colonies (B. thuringiensis; Aztreonam 5 mg, 10^5 cfu/mL) was “+” and the Number of colonies (B. cereus; ATCC11778, Aztreonam 0.05 mg, 10^1 cfu/mL) was 1. The Number of colonies (B. cereus; ATCC11778, Aztreonam 0.05 mg, 10^2 cfu/mL) was 13, the Number of colonies (B. cereus; ATCC11778, Aztreonam 0.05 mg, 10^3 cfu/mL) was “+” and the Number of colonies (B. cereus; ATCC11778, Aztreonam 0.05 mg, 10^4 cfu/mL) was “+”. The Number of colonies (B. cereus; ATCC11778, Aztreonam 0.05 mg, 10^5 cfu/mL) was “+”, the Number of colonies (B. cereus; ATCC11778, Aztreonam 0.5 mg, 10^1 cfu/mL) was 1 and the Number of colonies (B. cereus; ATCC11778, Aztreonam 0.5 mg, 10^2 cfu/mL) was 12. The Number of colonies (B. cereus; ATCC11778, Aztreonam 0.5 mg, 10^3 cfu/mL) was “+”, the Number of colonies (B. cereus; ATCC11778, Aztreonam 0.5 mg, 10^4 cfu/mL) was “+” and the Number of colonies (B. cereus; ATCC11778, Aztreonam 0.5 mg, 10^5 cfu/mL) was “+”. The Number of colonies (B. cereus; ATCC11778, Aztreonam 5 mg, 10^1 cfu/mL) was 2, the Number of colonies (B. cereus; ATCC11778, Aztreonam 5 mg, 10^2 cfu/mL) was 17 and the Number of colonies (B. cereus; ATCC11778, Aztreonam 5 mg, 10^3 cfu/mL) was “+”. For the same compound, the Number of colonies (B. cereus; ATCC11778, Aztreonam 5 mg, 10^4 cfu/mL) was “+”, the Number of colonies (B. cereus; ATCC11778, Aztreonam 5 mg, 10^5 cfu/mL) was “+” and the Number of colonies (B. cereus; ATCC19637, Aztreonam 0.05 mg, 10^1 cfu/mL) was 3. The Number of colonies (B. cereus; ATCC19637, Aztreonam 0.05 mg, 10^2 cfu/mL) was 2, the Number of colonies (B. cereus; ATCC19637, Aztreonam 0.05 mg, 10^3 cfu/mL) was “+” and the Number of colonies (B. cereus; ATCC19637, Aztreonam 0.05 mg, 10^4 cfu/mL) was “+”. For the same compound, the Number of colonies (B. cereus; ATCC19637, Aztreonam 0.05 mg, 10^5 cfu/mL) was “+”, the Number of colonies (B. cereus; ATCC19637, Aztreonam 0.5 mg, 10^1 cfu/mL) was 1 and the Number of colonies (B. cereus; ATCC19637, Aztreonam 0.5 mg, 10^2 cfu/mL) was 10. For the same compound, the Number of colonies (B. cereus; ATCC19637, Aztreonam 0.5 mg, 10^3 cfu/mL) was “+”, the Number of colonies (B. cereus; ATCC19637, Aztreonam 0.5 mg, 10^4 cfu/mL) was “+” and the Number of colonies (B. cereus; ATCC19637, Aztreonam 0.5 mg, 10^5 cfu/mL) was “+”. The Number of colonies (B. cereus; ATCC19637, Aztreonam 5 mg, 10^1 cfu/mL) was 1, the Number of colonies (B. cereus; ATCC19637, Aztreonam 5 mg, 10^2 cfu/mL) was 5 and the Number of colonies (B. cereus; ATCC19637, Aztreonam 5 mg, 10^3 cfu/mL) was “+”. For the same compound, the Number of colonies (B. cereus; ATCC19637, Aztreonam 5 mg, 10^4 cfu/mL) was “+” and the Number of colonies (B. cereus; ATCC19637, Aztreonam 5 mg, 10^5 cfu/mL) was “+”.
